# In paper PMC7529893, “Structural basis for substrate recognition and chemical inhibition of oncogenic MAGE ubiquitin ligases” (Nature Communications, 2020):
# Biological target: T1, MAGE-A11:PCF11 interaction (GST-MAGE-A11 and FAM-PCF11_4) (Homo sapiens, UniProt P43364)
# T1 construct: GST-MAGE-A11 MHD (human MAGE-A11 MHD amino acid 218-429); made in house; host or cells: E. coli BL21(DE3)
# T1 sequence (P43364 218-429): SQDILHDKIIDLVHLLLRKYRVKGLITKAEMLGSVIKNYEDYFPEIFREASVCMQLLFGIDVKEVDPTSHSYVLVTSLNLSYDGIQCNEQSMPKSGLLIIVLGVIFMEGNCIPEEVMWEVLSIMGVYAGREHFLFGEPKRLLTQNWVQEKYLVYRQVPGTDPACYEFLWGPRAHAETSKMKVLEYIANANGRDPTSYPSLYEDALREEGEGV
# Test: TR-FRET primary / single point screen at 15 µM
# Type: binding
# Details: single point TR-FRET screening of 797 quinoline compounds against MAGE-A11:PCF11
# Outline: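 TR-FRET 520/490 nm emission ratio was read after 90 min at room temperature. Wells held 5 nM GST-MAGE-A11, 5 nM Tb-anti-GST, 200 nM FAM-PCF11_4 and 15 µM compound in Tris pH 7.5 buffer with MgCl2, BSA and DTT. %Inhibition was scaled to DMSO and minus-MAGE-A11 controls.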
row,Structure (SMILES),percent inhibition (TR-FRET)
1,Clc1ccc2c(NCCCCN(Cc3ccccc3)Cc3ccccc3)ccnc2c1 [SJ000522718],17.3464
2,Clc1ccc2c(NCCCCN(Cc3ccccc3)Cc3ccc4c(c3)OCO4)ccnc2c1 [SJ000522723],16.5062
3,COc1ccc(CN(CCCCNc2ccnc3cc(Cl)ccc23)Cc2ccccc2)cc1 [SJ000522724],6.683
4,Fc1ccc(CN(CCCCNc2ccnc3cc(Cl)ccc23)Cc2ccccc2)cc1 [SJ000522725],30.2004
5,COc1ccccc1CN(CCCCNc1ccnc2cc(Cl)ccc12)Cc1ccccc1 [SJ000522726],19.4021
6,CN(C)c1ccc(CN(CCCCNc2ccnc3cc(Cl)ccc23)Cc2ccccc2)cc1 [SJ000522727],21.522
7,COc1ccc(CN(CCCCNc2ccnc3cc(Cl)ccc23)Cc2ccccc2)cc1OC [SJ000522728],0.05797
8,Clc1ccc2c(NCCCCN(CCCc3ccccc3)Cc3ccccc3)ccnc2c1 [SJ000522729],27.8155
9,CCCN(CCCNc1c2ccc(Cl)cc2nc2ccc(OC)cc12)CCC(C)c1ccccc1 (stereo not shown) [SJ000522731],-120.975
10,CCCN(CCCNc1c2ccc(Cl)cc2nc2ccc(OC)cc12)Cc1c(F)cccc1OC [SJ000522733],-187.09
11,CCCN(CCCNc1c2ccc(Cl)cc2nc2ccc(OC)cc12)Cc1ccc([N+](=O)[O-])s1 [SJ000522735],-154.43
12,CCCN(CCCNc1c2ccc(Cl)cc2nc2ccc(OC)cc12)Cc1cn(C(C)=O)c2ccccc12 [SJ000522736],-192.351

# Same assay, conditions: single point TR-FRET screening of quinoline compounds against MAGE-A11:PCF11; 15 µM
row,Structure (SMILES),percent inhibition (TR-FRET)
1,CCCN(CCCNc1ccnc2cc(C(F)(F)F)ccc12)Cc1ccc(CC)cc1 [SJ000521009],31.7696
2,CCCN(CCCNc1ccnc2cc(C(F)(F)F)ccc12)Cc1nc(C)cs1 [SJ000521010],0.8927
3,CCCN(CCCNc1ccnc2cc(C(F)(F)F)ccc12)CCOCc1ccccc1 [SJ000521011],25.8235
4,CCCN(CCCNc1ccnc2cc(C(F)(F)F)ccc12)Cc1cc(F)cc(F)c1O [SJ000521012],14.997
5,CCCN(CCCNc1ccnc2cc(C(F)(F)F)ccc12)Cc1ccc(OC)c(F)c1 [SJ000521013],21.7574
6,CCCN(CCCNc1ccnc2cc(C(F)(F)F)ccc12)Cc1cc(F)ccc1C [SJ000521014],20.6371
7,CCCN(CCCNc1ccnc2cc(C(F)(F)F)ccc12)Cc1ccc(Cl)c(C(F)(F)F)c1 [SJ000521015],11.045
8,Cn1cccc1CNCCCNc1ccnc2cc(Cl)ccc12 [SJ000521019],18.9568
9,Cn1cc(CNCCCNc2ccnc3cc(Cl)ccc23)c2ccccc21 [SJ000521020],18.4667
10,COC(=O)CCCCCNCCCNc1ccnc2cc(Cl)ccc12 [SJ000521021],39.1213
11,Clc1ccc2c(NCCCNCc3nccs3)ccnc2c1 [SJ000521023],4.988
12,CC(C)(C)CCNCCCNc1ccnc2cc(Cl)ccc12 [SJ000521026],9.225
13,CCCCNCCCNc1ccnc2cc(Cl)ccc12 [SJ000521027],8.4544
14,Clc1ccc2c(NCCCNCc3cc(Br)cs3)ccnc2c1 [SJ000521028],22.1075
15,Clc1ccc2c(NCCCNCc3cc4ccccc4o3)ccnc2c1 [SJ000521029],17.9065
16,Clc1ccc2c(NCCCNCc3cc4ccccc4s3)ccnc2c1 [SJ000521032],30.1342
17,Clc1ccc2c(NCCCNCc3csc4ccccc34)ccnc2c1 [SJ000521033],33.3803
18,Clc1ccc2c(NCCCNCc3nc4ccccc4s3)ccnc2c1 [SJ000521034],4.695
19,Clc1ccc2c(NCCCNCc3cncc(Br)c3)ccnc2c1 [SJ000521037],7.014
20,Clc1ccc2c(NCCCNCC3CCOC3)ccnc2c1 (stereo not shown) [SJ000521038],0.4026
21,Cn1ccnc1CNCCCNc1ccnc2cc(Cl)ccc12 [SJ000521040],1.449

row,Structure (SMILES),percent inhibition (TR-FRET)
1,Cn1cccc1CNCCCNc1ccnc2cc(C(F)(F)F)ccc12 [SJ000521041],-6.879
2,FC(F)(F)c1ccc2c(NCCCNCc3cccnc3)ccnc2c1 [SJ000521042],15.0359
3,Cn1cc(CNCCCNc2ccnc3cc(C(F)(F)F)ccc23)c2ccccc21 [SJ000521043],29.109
4,COC(=O)CCCCCNCCCNc1ccnc2cc(C(F)(F)F)ccc12 [SJ000521044],19.5869
5,FC(F)(F)c1ccc2c(NCCCNCc3nccs3)ccnc2c1 [SJ000521046],7.779
6,CC(C)(C)CCNCCCNc1ccnc2cc(C(F)(F)F)ccc12 [SJ000521053],27.3587
7,CCCCNCCCNc1ccnc2cc(C(F)(F)F)ccc12 [SJ000521055],18.5367
8,FC(F)(F)c1ccc2c(NCCCNCc3cc(Br)cs3)ccnc2c1 [SJ000521056],32.7178
9,FC(F)(F)c1ccc2c(NCCCNCc3cc4ccccc4o3)ccnc2c1 [SJ000521057],27.4843
10,FC(F)(F)c1ccc2c(NCCCNCc3cc4ccccc4s3)ccnc2c1 [SJ000521060],35.6327
11,FC(F)(F)c1ccc2c(NCCCNCc3csc4ccccc34)ccnc2c1 [SJ000521061],41.8599
12,FC(F)(F)c1ccc2c(NCCCNCc3nc4ccccc4s3)ccnc2c1 [SJ000521062],14.4336
13,FC(F)(F)c1ccc2c(NCCCNCC3CCOC3)ccnc2c1 (stereo not shown) [SJ000521065],15.5598
14,Cn1ccnc1CNCCCNc1ccnc2cc(C(F)(F)F)ccc12 [SJ000521068],10.1938
15,Clc1ccc2c(NCCCN(Cc3ccccc3)Cc3ccc[nH]3)ccnc2c1 [SJ000522717],20.4621
16,Clc1ccc2c(NCCCN(Cc3ccccc3)Cc3ccc4c(c3)OCO4)ccnc2c1 [SJ000522719],9.001
17,COc1ccc(CN(CCCNc2ccnc3cc(Cl)ccc23)Cc2ccccc2)cc1 [SJ000522720],11.7837
18,Fc1ccc(CN(CCCNc2ccnc3cc(Cl)ccc23)Cc2ccccc2)cc1 [SJ000522721],18.0772
19,COc1ccccc1CN(CCCNc1ccnc2cc(Cl)ccc12)Cc1ccccc1 [SJ000522722],4.43
20,CCCN(CCCNc1c2ccc(Cl)cc2nc2ccc(OC)cc12)CCCSC [SJ000522730],0.7867
21,CCCN(CCCNc1c2ccc(Cl)cc2nc2ccc(OC)cc12)Cc1ccc2[nH]ccc2c1 [SJ000522732],39.4714

row,Structure (SMILES),percent inhibition (TR-FRET)
1,CCCN(CCCNc1c2ccc(Cl)cc2nc2ccc(OC)cc12)Cc1c(F)c(F)c(F)c(F)c1F [SJ000522734],-2.258
2,CCCN(CCCNc1c2ccc(Cl)cc2nc2ccc(OC)cc12)Cc1cc2ccccc2nc1Cl [SJ000522737],-83.7446
3,CCCN(CCCNc1c2ccc(Cl)cc2nc2ccc(OC)cc12)Cc1ccc(Cl)c([N+](=O)[O-])c1 [SJ000522738],-71.0252
4,CCCN(CCCNc1c2ccc(Cl)cc2nc2ccc(OC)cc12)Cc1cccc(C#N)c1 [SJ000522739],-94.5429
5,CCCN(CCCNc1c2ccc(Cl)cc2nc2ccc(OC)cc12)Cc1ccc(-c2ccccc2)cc1 [SJ000522740],-74.0063
6,CN(C)c1ccc(CN(CCCNc2ccnc3cc(Cl)ccc23)Cc2ccccc2)cc1 [SJ000522741],14.7648
7,COc1ccc(CN(CCCNc2ccnc3cc(Cl)ccc23)Cc2ccccc2)cc1OC [SJ000522742],-0.5383
8,CCCN(CCCNc1ccnc2cc(Cl)ccc12)Cc1ccccn1 [SJ000522743],1.3128
9,CCCN(CCCNc1ccnc2cc(Cl)ccc12)Cc1ccsc1 [SJ000522744],7.824
10,CCCN(CCCNc1ccnc2cc(Cl)ccc12)Cc1ccccc1C(F)(F)F [SJ000522745],-38.0341
11,CCCN(CCCNc1ccnc2cc(Cl)ccc12)Cc1ccc2[nH]ccc2c1 [SJ000522746],96.845
12,CCCN(CCCNc1ccnc2cc(Cl)ccc12)Cc1ccccc1N [SJ000522747],15.4273
13,CCCN(CCCNc1ccnc2cc(Cl)ccc12)Cc1c(F)c(F)c(F)c(F)c1F [SJ000522748],19.8658
14,CCCN(CCCNc1ccnc2cc(Cl)ccc12)Cc1c(C)cc(C)cc1C [SJ000522749],35.4339
15,CCCN(CCCNc1ccnc2cc(Cl)ccc12)Cc1ccc([N+](=O)[O-])s1 [SJ000522750],9.134
16,CCCN(CCCNc1ccnc2cc(Cl)ccc12)CC1CCCCC1 [SJ000522751],15.626
17,CCCN(CCCNc1ccnc2cc(Cl)ccc12)CC(CC)CC [SJ000522752],14.1686
18,CCCN(CCCNc1ccnc2cc(Cl)ccc12)Cc1ccc2c(c1)OCO2 [SJ000522753],18.7467
19,CCCCCN(CCC)CCCNc1ccnc2cc(Cl)ccc12 [SJ000522754],16.2885
